Reference: US6693082B2, “Method of inhibiting metastatic dissemination using desmopressin” (priority 1999, dated 2004)
Marks after values point to notes of the source that are not given here.

Legend:
[1] = tested on: mammary carcinoma murine model F3II; settings: F3II cells in culture; 100 ng/ml at 1 μg/ml; cited from earlier work
[2] = tested on: murine mammary cancer cell line F3II (sarcomatoid carcinoma); experiment: Assay 1: inhibition of pulmonary metastatic colonization, i.v. inoculated F3II cells in BALB/c mice; format: in vivo
Experimental: (§1) Assay 1: Inhibition of Metastatic Colonization by the Application of Desmopressin 12-16 weeks old syngenic mice from the BALB/c strain weighing 25 g on average were used. As tumor cells, murine mammary cancer cell lines […] (sarcomatoid carcinoma) and LM3 (poorly differentiated adenocarcinoma) were used and kept in monolayer culture in minimum essential medium (MEM, Gibco, Grand Island, N.Y.), supplemented with 5% heat-inactivated bovine fetal serum, 2 mM glutamine and gentamicine 80 μg/ml ([…]. Farías, […]. Bal de Kier Joffé, Characterization of […], a Mammary Sarcomatoid Carcinoma Cell Line Originated From a Mouse Adenocarcinoma, J. Surg. Oncol. 1996, 62:288-97). In order to collect them, cells were trypsinized following conventional procedures. Desmopressin available from Ferring Pharmaceuticals (Malmo, Sweden) was used. Desmopressin as provided by Sigma Chemical Co. (St. Louis, Miss.) was also employed. Mice were inoculated with tumor cells at a concentration of 2×10^5 cells/0.3 ml MEM/mouse in the side vein of their tails, in accordance with the following schedule and using eight animals in each group: Coinjection with Desmopressin: tumor cells were preincubated in serum-free MEM and i.v. coinjected with desmopressin, at a final dose of 1 μg ([…] cells) or 2 μg (LM3 cells) per kg of body weight. Preincubation with Desmopressin: tumor cell suspensions were preincubated in serum-free MEM for 30-60 minutes at 37° C., in the presence of equivalent concentrations of desmopressin (80-160 ng/ml MEM). Then, cells were pelleted, resuspended in serum-free MEM and i.v. injected in the absence of desmopressin. Control: animals inoculated with tumor cells, with no desmopressin treatment. Three weeks after inoculation, lung weights were quantified and the number of pulmonary metastatic nodules was determined under the dissection microscope.

[3] = tested on: murine mammary cancer cell line LM3 (poorly differentiated adenocarcinoma); experiment: Assay 1: inhibition of pulmonary metastatic colonization, i.v. inoculated LM3 cells in BALB/c mice; format: in vivo
Experimental: as §1

[4] = in vivo, cited from earlier work
[5] = human, in vivo; cited from earlier work
[6] = tested on: F3II tumor cell suspensions; experiment: Assay 3A: cell survival of tumor cell suspensions, trypan blue; format: cell-based, murine; settings: 80 ng/ml and 160 ng/ml; 1-5 hours at 37° C. in serum-free MEM
Experimental: Assay 3: Cell Survival and Cytotoxicity In Vitro
A. F3II tumor cell suspensions were incubated at 37° C. in serum-free MEM: in the absence of desmopressin, in the presence of desmopressin, at concentrations of 80 ng/ml, in the presence of desmopressin, at concentrations of 160 ng/ml.
After 1-5 hours, cellular viability was assessed by the trypan blue technique. The results are shown in FIG. 2, where the absence of desmopressin (squares) and the presence of desmopressin are represented at concentrations of 80 ng/ml (triangles) and of 160 ng/ml (circles).

[7] = tested on: breast carcinoma tumor cells F3II; experiment: Assay 2: extension of desmopressin action on experimental metastases (i.v. injection after tumor cell inoculation); format: in vivo, mice
Experimental: Assay 2: Extension of Desmopressin Action on Experimental Metastases Four groups of ten mice each were organized, and were inoculated with breast carcinoma tumor cells […], in accordance with the above description for Assay 1. Thereafter they were intravenously injected with desmopressin in 0.1 ml of physiological solution at different times (1.5 hours, 3 hours and 24 hours) after the inoculation with tumor cells. Quantification of pulmonary weights took place three weeks after tumoral inoculation. The results are depicted in FIG. 1, in which they are expressed as media±error standard. Similar results were obtained by quantifying the number of pulmonary metastatic nodules per animal.

[8] = mouse, in vivo; cited from earlier work

Row | Structure (SMILES) | Breast cancer cell proliferation [1] | Urokinase secretion [1] | Number of median pulmonary nodules (range) ([2]; F3II cells preincubated 30-60 minutes at 37° C. with desmopressin (80-160 ng/ml MEM), injected in absence of desmopressin, three weeks) | Decrease in number of metastatic nodules ([2]; F3II cells, coinjection with desmopressin vs control) | Number of median pulmonary nodules (range) ([2]; F3II cells, i.v. coinjection with desmopressin, final dose 1 μg per kg, three weeks after inoculation, p < 0.01 vs control) | Incidence of metastatic nodules after tumor cell preincubation in vitro ([2]; F3II cells, preincubation with equivalent concentrations of desmopressin) | Number of median pulmonary nodules (range) ([3]; LM3 cells preincubated 30-60 minutes at 37° C. with desmopressin (80-160 ng/ml MEM), injected in absence of desmopressin, three weeks) | Decrease in number of metastatic nodules ([3]; LM3 cells, coinjection with desmopressin vs control) | Number of median pulmonary nodules (range) ([3]; LM3 cells, i.v. coinjection with desmopressin, final dose 2 μg per kg, three weeks after inoculation, p < 0.01 vs control) | Incidence of metastatic nodules after tumor cell preincubation in vitro ([3]; LM3 cells, preincubation with equivalent concentrations of desmopressin) | Half-life ([4]; iv, 20 ug) [min] | Drug eliminated unmetabolized [4] [%] | Thrombotic risk [5] [%] | Cell viability of tumor cell suspensions (trypan blue, FIG. 2) [6] | Extrapulmonary metastases ([7]; animals treated with desmopressin) | Inhibition of metastases (pulmonary weights, FIG. 1) ([7]; desmopressin i.v. 24 hours after inoculation of tumor cells, three weeks after inoculation) | Effects of high dose in mice [8]
1 | NC(=O)CC[C@@H]1NC(=O)[C@H](Cc2ccccc2)NC(=O)[C@H](Cc2ccc(O)cc2)NC(=O)[C@@H](N)CSSC[C@@H](C(=O)N2CCC[C@H]2C(=O)N[C@@H](CCCN=C(N)N)C(=O)NCC(N)=O)NC(=O)[C@H](CC(N)=O)NC1=O [vasopressin] | able to modulate | able to modulate | – | – | – | – | – | – | – | – | – | – | – | – | – | – | –
2 | NC(=O)CC[C@@H]1NC(=O)[C@H](Cc2ccccc2)NC(=O)[C@H](Cc2ccc(O)cc2)NC(=O)CCSSC[C@@H](C(=O)N2CCC[C@H]2C(=O)N[C@H](CCCN=C(N)N)C(=O)NCC(N)=O)NC(=O)[C@H](CC(N)=O)NC1=O [desmopressin, 1-deamino-8-D-arginine vasopressin] | able to modulate | able to modulate | 19 (3-66) | about 70% | 5 (0-12)* | did not lessen the incidence of metastatic nodules | 12 (8-37) | about 70% | 3 (1-18)* | did not lessen the incidence of metastatic nodules | ≤ 160 | 60 | 0.0001 | did not reduce cell viability | No extrapulmonary metastases were found | inhibition of metastases was also effected | no relevant effects
